# Earlier results in patent US20070167418A1 (priority 2004, published 2007).
# Like-named read-outs stand apart in the source and are kept apart here.
# Experiments:
# [1] = in vivo
# ED = settings: oral
# men with ED [2] = settings: intraurethral suppositories
# men with ED [3] = settings: 100 mg; placebo twenty-two percent
# [4] = not given; remark: listed apart in the source
structure (smiles),measurement,setting,value
CN1CC(=O)N2[C@H](c3ccc4c(c3)OCO4)c3[nH]c4ccccc4c3C[C@@H]2C1=O [tadalafil],half-life,[1],approximately eighteen
C[C@]12CC[C@H]3[C@@H](CCC4=CC(=O)CC[C@@]43C)[C@@H]1CC[C@@H]2O [testosterone],restoring physiological testosterone levels,gels,high efficacy
same,men with erythrocytosis,gels or patches,5%
same,"men with gynecomastia, peripheral edema, exacerbation or de novo sleep apnea, acne and mild weight gain",in vivo,less than 2%
same,men with erythrocytosis,injections,≤ 50%
same,hepatotoxicity risk,oral agents available in the United States,significant risk of hepatotoxity
same,liver toxicity,transdermal or intramuscular preparations,does not seem to be associated
same,men with local skin reactions,"transdermal, patches",≤ 40%
COC(=O)[C@@H]1[C@H]2C[C@H]3c4[nH]c5ccccc5c4CCN3C[C@@H]2CC[C@@H]1O [Yohimbine],efficacy in the treatment of ED,ED,limited efficacy
CCCCC[C@H](O)/C=C/[C@H]1[C@H](O)CC(=O)[C@@H]1CCCCCCC(=O)O [alprostadil],efficacy compared with penile injection,men with ED [2],less effective
CCCc1nc(C)c2c(=O)[nH]c(-c3cc(S(=O)(=O)N4CCN(CC)CC4)ccc3OCC)nn12 [vardenafil],half-life,[1],four to five
same,time of peak serum concentrations,[1],approximately one
CCCc1nn(C)c2c(=O)[nH]c(-c3cc(S(=O)(=O)N4CCN(C)CC4)ccc3OCC)nc12 [sildenafil],men achieving successful intercourse,men with ED [3],sixty-nine
same,half-life,[1],four to five
CC(C)NCC(O)COc1ccc(CC(N)=O)cc1 (stereo not shown) [atenolol],men reporting ED after beginning treatment,"[4]; 50 mg, men informed of its sexual adverse effects",31%
same,men reporting ED after beginning treatment,"[4]; similarly treated, men blinded as to the study drug",3%
